# Assay results reported in US9676806B2, “Metal-based thiophene photodynamic compounds and their use” (priority 2012, dated 2017).
# Test system: pUC19 plasmid DNA
# Assay: PDC-mediated pUC19 photocleavage, gel electrophoretic analysis
# [1] = Air, +hv, 420-nm irradiation 1 hr, FIG. 15
# [2] = Air, +hv, visible irradiation 1 hr, 21 W/m^2, FIG. 16
# [3] = Ar, +hv, 420-nm irradiation 1 hr, FIG. 15
# [4] = Ar, +hv, visible irradiation 1 hr, 21 W/m^2, FIG. 16
# Protocol: FIG. 16: Gel electrophoretic analysis (1% agarose gel precast with 0.75 μg mL^−1 ethidium bromide, 1×TAE, 8 V cm^−1, 30 min.) of PDC-mediated pUC19 photocleavage in air-saturated and deoxygenated solution: visible irradiation of pUC19 (20 μM NP in 10 mM Tris·100 mM NaCl, pH 7.4) for 1 hr. with cool white fluorescent tubes, 21 W/m^2. Lanes 1 (−PDC, −hv), 2 (500 μM [Ru(bpy)3]^2+, −hv), and 5 (2 μM 10a, −hv) are controls. Lanes 3 (500 μM [Ru(bpy)3]^2+, +hv) and 6 (2 μM 10a, +hv) contain samples that were irradiated in air; lanes 4 and 7 are the corresponding samples irradiated in argon.
# DNA photocleavage experiments were performed according to a general plasmid DNA assay with 20 μL total sample volumes in 0.5 or 1.5 mL microfuge tubes containing transformed pUC19 plasmid (200 ng, >95% Form I) in 10 mM MOPS buffer and 100 mM NaCl, pH 7.4. DNA (1-5 μL) was delivered to the assay tubes as a solution in 10 mM Tris-Cl (pH 8.5) and diluted with MOPS (pH 7.5, final concentration 10 mM) and NaCl (final concentration 100 mM). […] Complexes were dissolved initially in acetonitrile (2 μM stock solutions), and all subsequent dilutions were made with ddH2O where final assay tubes contained <1% acetonitrile. For concentration-based assays, samples (no pre-incubation period) were irradiated in air for 30 min with 420 nm light inside a photoreactor (Luzchem LZC-4X). Where irradiation of deoxygenated samples was required, argon was bubbled through the solutions for 15 min prior to irradiation under a positive pressure of argon. All samples were quenched by the addition of gel loading buffer (4 μL), loaded onto 1% agarose gels containing ethidium bromide (0.75 μg mL^−1), and electrophoresed for 30 min at 8-12 V cm^−1 in 1×TAE (40 mM Trisacetate, 1 mM EDTA, pH 8.2). The bands were visualized with UV-transillumination (UVP transilluminator) and quantified using the Gel Doc-It Imaging system (UVP) or GNU Image Manipulation Program (GIMP).
smiles,measurement,setting,value
[Ru+2].c1ccc(-c2ccccn2)nc1.c1ccc(-c2ccccn2)nc1.c1ccc(-c2ccccn2)nc1 [[Ru(bpy)^3]^2+],Form I,[1],33%
same,Form II,[1],67%
same,Form I,[2],37%
same,Form II,[2],63%
same,Form II,"Air, dark, 420-nm experiment FIG. 15",29%
same,Form I,"Air, dark, 420-nm experiment FIG. 15, 300 μM [Ru(bpy)3]2+, 2 μM 10a, 4 μM 10b, 8 μM 14a",71%
same,Form II,"Air, dark, visible experiment FIG. 16",28%
same,Form I,"Air, dark, visible experiment FIG. 16, 500 μM [Ru(bpy)3]2+, 2 μM 10a",72%
same,Form I,[3],71%
same,Form II,[3],29%
same,Form I,[4],57%
same,Form II,[4],43%
